Experimental data reported in patent US20260198526A1, “METHOD FOR PROMOTING DIFFERENTIATION OF ANIMAL CELL” (Ajinomoto Co., Inc., priority 2023, published 2026).

System: chicken muscle stem cells
Assay: Muscle differentiation of chicken muscle stem cells in serum-free differentiation medium (MyHC immunocytochemistry, Fusion Index)
Type: cell-based
Conditions: additive concentrations of Table 1, second day, FIG. 2
Description: Muscle tissue was collected from edible bovine shank meat, and CD56-positive cells were isolated using a Magnetic-Activated Cell Sorting (MACS) system to obtain bovine muscle stem cells. Separately, muscle stem cells were isolated from edible chicken breast meat.
Then, on the second day, the expression of myosin heavy chain (MyHC) was measured by immunocytochemistry. The cells were fixed with 4% paraformaldehyde (Nacalai Tesque, Cat No. 09154-85) for 15 minutes. After washing twice with Dulbecco's phosphate-buffered saline (without Ca, Mg) (Nacalai Tesque, Cat No. 14249-24), the cells were immersed in Dulbecco's phosphate-buffered saline (without Ca, Mg) containing 0.1% Triton X-100 (Sigma, Cat No. T9284) for 10 minutes. Then, the solution was replaced with a blocking buffer and left to stand for 1 hour. As the blocking buffer, a solution was used in which Dulbecco's phosphate-buffered saline (without Ca, Mg) was supplemented with 5% horse serum and 0.1% Triton X-100. […] MyHC-positive cells were detected with a fluorescence microscope ECLIPSE Ti2-E (Nikon), and the Fusion Index (=Number of MyHC-positive nuclei/Total number of nuclei×100(%)) was calculated. […]
Then, on the second day, the expression of myosin heavy chain (MyHC) was measured by the same method as in (1-2).

With `OCc1ccccc1O[C@@H]1O[C@H](CO)[C@@H](O)[C@H](O)[C@H]1O` [Salicin] the “muscle differentiation (MyHC expression, Fusion Index)” value was “promoted the muscle differentiation of chicken cells”.
